Results on 8 molecules are retold here after patent publication US11098043B2, “Certain imidazopyridines as cyclic AMP response element binding (CREB) binding protein (CBP) inhibitors and uses thereof” (University of Massachusetts, priority 2017, dated 2021).

One assay deals with T1, BRD4(1) bromodomain (Homo sapiens, UniProt O60885).
T1 construct: final concentrations of His-BRD4(1) at 20 nM
As to the kind of experiment: AlphaScreen in vitro binding assay with BRD4. The settings on record: isolated BRD4 bromodomain, means of at least two determinations. Here is the method:
(§1) To determine the binding selectivity of compounds provided, AlphaScreen in vitro binding assays were performed with either CBP or BRD4.
Assays were performed with minor modifications from the manufacturer's protocol (Perkin Elmer, USA). All reagents were diluted in AlphaScreen™ buffer (50 mM HEPES, 150 mM NaCl, 0.01% v/v Tween-20, 0.1% w/v BSA, pH 7.4). After addition of Alpha beads to master solutions, all subsequent steps were performed under low light conditions. […] Plates were spun down at 1000 rpm. A 10-point 1: √{square root over (sqrt(10))} serial dilution of compounds in DMSO was prepared at 200× the final concentration. 100 nL of compound from these stock plates were added by pin transfer using a Janus Workstation (PerkinElmer). A 2× solution of streptavidin-coated donor beads with a final concentration of 10 μg/ml was added in a 10 μL volume. The plates were spun down again at 1000 rpm and sealed with foil to prevent light exposure and evaporation. The plates were then incubated at room temperature for 1 hour and read on an Envision 2104 (PerkinElmer) using the manufacturer's protocol. IC50 values were calculated using a 4-parameter logistic curve in Prism 6 (GraphPad Software, USA) after normalization to DMSO-treated negative control wells.
(In Alpha technology, singlet oxygen from a donor bead excites a nearby acceptor bead.)

Another assay deals with T2, CBP bromodomain (Homo sapiens, UniProt Q92793).
T2 construct: docked complex of Compound 21 with CBP bromodomain
T2 sequence (Q92793 1085-1192 limits assumed): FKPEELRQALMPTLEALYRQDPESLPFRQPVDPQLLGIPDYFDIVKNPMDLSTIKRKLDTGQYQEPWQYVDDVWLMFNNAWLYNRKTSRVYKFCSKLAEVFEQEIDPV
As to the kind of experiment: AlphaScreen in vitro binding assay with CBP. The settings on record: for IC50: AlphaScreen, isolated CBP bromodomain, means of at least two determinations; for Selectivity Value [BRD4(1) IC50 (μM)/CBP IC50 (μM)]: ratio BRD4(1) IC50 / CBP IC50. Here is the method: as §1
Assays were performed with minor modifications from the manufacturer's protocol (Perkin Elmer, USA). All reagents were diluted in AlphaScreen™ buffer (50 mM HEPES, 150 mM NaCl, 0.01% v/v Tween-20, 0.1% w/v BSA, pH 7.4). After addition of Alpha beads to master solutions, all subsequent steps were performed under low light conditions. A 2× solution of components with final concentrations of His-BRD4(1) at 20 nM or His-CBP at 50 nM, Ni-coated Acceptor bead at 10 μg/ml, and biotinylated-JQ1 at 10 nM or biotinylated peptide at 100 nM was added in 10 μL to 384-well plates (AlphaPlate-384, PerkinElmer) using an EL406 liquid handler (Biotek, USA). Plates were spun down at 1000 rpm. A 10-point 1: √{square root over (sqrt(10))} serial dilution of compounds in DMSO was prepared at 200× the final concentration. 100 nL of compound from these stock plates were added by pin transfer using a Janus Workstation (PerkinElmer). A 2× solution of streptavidin-coated donor beads with a final concentration of 10 μg/ml was added in a 10 μL volume. The plates were spun down again at 1000 rpm and sealed with foil to prevent light exposure and evaporation. The plates were then incubated at room temperature for 1 hour and read on an Envision 2104 (PerkinElmer) using the manufacturer's protocol. IC50 values were calculated using a 4-parameter logistic curve in Prism 6 (GraphPad Software, USA) after normalization to DMSO-treated negative control wells.

`COc1ccc(CCc2nc3cc(-c4c(C)noc4C)ccn3c2NCCN2CCOCC2)cc1` [Compound 17] registered an IC50 at BRD4(1) bromodomain of 3420 nM. In addition, on CBP bromodomain, the half-maximal inhibitory concentration (IC50) is 464 nM and the “Selectivity Value [BRD4(1) IC50 (μM)/CBP IC50 (μM)]” value (shortened to “Selectivity Value”) is 7.
The molecule `Cc1noc(C)c1-c1ccn2c(NC3CCCCC3)c(CCc3ccc(OC(C)C)cc3)nc2c1` [Compound 36] showed a half-maximal inhibitory concentration (IC50) on BRD4(1) bromodomain of 8180 nM. On CBP bromodomain, the concentration for half-maximal inhibition (IC50) worked out at 737 nM and the “Selectivity Value” value worked out at 11.
The like results for `COc1ccc(CCc2nc3cc(-c4c(C)noc4C)ccn3c2NCc2ccccc2)cc1` [Compound 24] were, in that order, 8470 nM, 1920 nM and 4.
At BRD4(1) bromodomain, `COc1ccc(CCc2nc3cc(-c4c(C)noc4C)ccn3c2Nc2ccc(Cl)cc2)cc1` [Compound 25] yielded a half-inhibitory concentration (IC50) of 7950 nM. On CBP bromodomain, the 50% inhibitory concentration (IC50) stood at 1610 nM and the “Selectivity Value” value came to 5.
The like results for `Cc1noc(C)c1-c1ccn2c(NC34CC5CC(CC(C5)C3)C4)c(CCc3ccccc3)nc2c1` [Compound 6] were, in that order, 3380 nM, 507 nM and 7.
On to `Cc1[nH]nc2ccc(-c3ccn4c(NC5CCCCC5)c(CCc5ccccc5)nc4c3)cc12` [Compound 11], for which the IC50 on BRD4(1) bromodomain turned out to be 510 nM; on CBP bromodomain it was 8020 nM. Moreover, the “Selectivity Value” value at CBP bromodomain is under 1.
The like results for `COc1ccc(CCc2nc3cc(-c4c(C)noc4C)ccn3c2NC23CC4CC(CC(C4)C2)C3)cc1` [Compound 16, N-((3s,5s,7s)-adamantan-1-yl)-7-(3,5-dimethylisoxazol-4-yl)-2-(4-methoxyphenethyl)imidazo[1,2-a]pyridine-3-amine] were, in that order, 7110 nM, 923 nM and 8.
The like results for `COc1ccc(CCc2nc3cc(-c4c(C)noc4C)ccn3c2NCC(=O)OC(C)(C)C)cc1` [Compound 15] were, in that order, 4220 nM, 1550 nM and 3.

One may read the IC50 as the point on the concentration scale where inhibition reaches its midpoint. A higher IC50 goes with a need for much substance.
